Data reported in patent US20240207253A1, “Inhibitors of CDR1 for Reversal of Azole Drug Resistance in Fungal Infections” (UNM RAINFOREST INNOVATIONS, priority 2021, published 2024).
Values belong to the compound of their own block, whether it stands above or below them.

Key:
C. albicans strain 5674 = experiment: Adenylate kinase (AK) release assay on assay supernatant; assay type: cell-based; conditions: caspofungin 50 ng/ml, positive control
Procedure: In addition to the output from the dose-response assays, we included an experimental step designed to identify compounds with fungicidal potential. Specifically, the inventors used the assay supernatant to interrogate for the presence of adenylate kinase (AK), an enzyme that is released from the cells when the cell wall or plasma membrane integrity is compromised. Low-dose caspofungin (50 ng/ml), an echinocandin known for its antifungal property due to disruption of the cell wall, was used as a positive control.

Cdr1p-GFP = Cdr1p-GFP whole cell fluorescence-based flow cytometry assay (primary screen and dose response); parameters: species or system C. albicans; conditions: 10 μM, positive control, isolate 5674 CDR1-GFP
From the text: Utilizing the novel approach of inhibition of CDR1 (Cdr1p) expression, initial experiments were directed to screening libraries of small molecules using a high-throughput whole cell fluorescence-based flow cytometry assay to identify agents that inhibit expression of CDR1-GFP in an azole-resistant C. albicans strain.
Each sample in the scaffold ranking screen contains only mixtures of compounds with the shared core scaffold. All compounds in a specific mixture are represented in approximately equal molar concentrations. The inventors performed the screen using the C. albicans azole-resistant, clinical isolate 5674, which was modified to carry a CDR1 allele tagged with GFP-encoding sequence. Modulation of Cdr1p-GFP levels in response to scaffold mixtures was assessed relative to basal levels (Response Ratio), from which scaffolds were ranked. […] The inventors used tacrolimus at 10 μM concentration as positive control in all screening assays.
The assay readout, GFP fluorescence levels as detected by a flow cytometer, is directly related to the levels of Cdr1p of the cell. Thus, flow cytometry data from each screen provides direct evidence that Cdr1p is modulated by hit compounds. […] False-positive hits were identified in follow-up dose-response assays where the effect of serial dilutions of each compound on Cdr1p-GFP levels was assessed.

[1] = system: C. glabrata AR Bank #0314; experiment: CLSI microbroth dilution checkerboard assay with fluconazole; assay type: cell-based; conditions: Nakaseomyces glabratus; fluconazole alone
Procedure: (§1) Overexpression of Cdr1p has been implicated in azole resistance in many fluconazole-resistant fungal pathogens. […] The inventors used the CLSI microbroth dilution method of antifungal susceptibility testing in a checkerboard assay format, where serial 2-fold dilutions of FLC (from 64 μg/ml) were tested in combination with serial 2-fold dilutions of a candidate hit compound (from 50 μg/ml). […] The data from three biological replicates was next used to assess synergy between each compound of interest and FLC. For these purposes, the inventors used the program SynScreen, which extrapolates non-linear fits of dose-response data to determine synergy using the Bliss independence and Loewe additivity analysis models. […] The Bliss Beta coefficient that the program calculates for all combinations further describes potential synergism (if >1), antagonism (if <1), or an additive effect (equal to 1).
(§2) For the purposes of reporting the effect of the test compound on FLC potentiation, the inventors excluded from analyses rows of combinations where TPIML compound alone affects yeast growth. C. krusei are intrinsically resistant to azoles and is predominantly due to a significant reduction of inhibition of the target, cytochrome P450 lanosterol 14α-demethylase, though the role of increased expression of the CaCdr1p homolog in resistance has also been described.

[2] = system: C. krusei reference strain, ATCC 6258; experiment: as above; assay type: cell-based; conditions: Pichia kudriavzevii, ATCC6258; fluconazole alone
Procedure: as §1, §2

[3] = system: C. parapsilosis AR Bank #0337; experiment: as above; assay type: cell-based; conditions: Lodderomyces parapsilosis; fluconazole alone
Procedure: as §1, §2

SMILES: CC[C@H](C)C[C@H](C)CCCCCCCCC(=O)N[C@H]1C[C@@H](O)[C@@H](NCCN)NC(=O)[C@@H]2[C@@H](O)CCN2C(=O)[C@H]([C@H](O)CCN)NC(=O)[C@H]([C@H](O)[C@@H](O)c2ccc(O)cc2)NC(=O)[C@@H]2C[C@@H](O)CN2C(=O)[C@H]([C@@H](C)O)NC1=O [caspofungin]
AK fold-increase (C. albicans strain 5674): 27

SMILES: C=CC[C@@H]1/C=C(\C)C[C@H](C)C[C@H](OC)[C@H]2O[C@@](O)(C(=O)C(=O)N3CCCC[C@H]3C(=O)O[C@H](/C(C)=C/[C@@H]3CC[C@@H](O)[C@H](OC)C3)[C@H](C)[C@@H](O)CC1=O)[C@H](C)C[C@@H]2OC [tacrolimus]
Response Ratio (Cdr1p-GFP levels relative to basal levels) (Cdr1p-GFP): 0.8

MIC50 [1]: 64 µg/mL
MIC50 [2]: 8 µg/mL
MIC50 [3]: 64 µg/mL
SMILES: OC(Cn1cncn1)(Cn1cncn1)c1ccc(F)cc1F [fluconazole]
